Assays:
Male Sprague-Dawley rats = assay: Spontaneous locomotor activity in rats (sedative properties); assay type: in vivo, rat; conditions: for sedative effect (in words): 0.3-10 mg/kg i.p., 45 minutes and 3 hours after administration
Method: A study was carried out in rats to determine whether the dihydrotetrabenazine isomers of the invention have sedative properties. The effects of the isomers on spontaneous locomotor activity in rats were compared with the effects produced by tetrabenazine and haloperidol using the methods set out below.
Male Sprague-Dawley rats, (Charles River Laboratories, Saint-Germain/L'Arbresle, France), weighing 200-250 g at the beginning of the study, were used for the studies. The rats were housed, 2 or 3 per cage, in Makrolon type III cages, in a room set up with the following environmental conditions: temperature: 20±2° C., humidity: minimum 45%, air changes: >12 per hour, light/dark cycle of 12 h/12 h [on at 7:00 a.m.]. The rats were allowed to acclimatize to their conditions for at least five days before commencement of the study. The rats received food (Dietex, Vigny, France, ref. 811002) and water (tap water in water bottle) ad libitum.
Solutions of each test compound in corn oil were freshly prepared on the day of the experiment. Haloperidol was prepared in hydroxyethylcellulose, 0.5% in deionized water. Either the vehicle or the test compounds were administered as a single dose (0.3, 1, 3 and 10 mg/kg, 2 mL/kg i.p.). The reference compound haloperidol (1 mg/kg) was administered i.p. (2 mL/kg).
The animals were placed in plexiglass cages under a video camera in a room with low light intensity (maximum 50 lux). At forty five minutes and 3 hours after administration, locomotor activity was determined during 20 minute periods using a video image analyzer (Videotrack, View Point, France). Locomotor activity was recorded in the reference group (haloperidol) at 1 hour after administration. The number and duration of ambulatory movements and duration of inactivity was measured. At the end of the locomotor activity measurement (45 minutes and 3 hours), palpebral closure and arousal were be scored as follows in the plexiglass cage:
The number of occurrences and duration (in seconds) of ambulatory (large) movements and the duration of periods of inactivity (seconds) was determined during two 20 minute periods (45 minutes and 3 hours after administration) using a video image analyzer (Videotrack, ViewPoint, Lyon, France). Image tracking was performed using a video camera placed above the plexiglass cage, recording overall locomotor activity. Images recorded with the video camera were digitalized and displacement of the centre of gravity of the digital image spots was tracked and analyzed using the following method: the speed of displacement of the centre of gravity of the spot was measured and two threshold values were set to define the type of movement: threshold 1 (high speed) and threshold 2 (low speed). When the animal moved and the speed of displacement of the centre of gravity of the spot was above threshold 1, the movement was considered as an ambulatory movement.
The results were expressed as the means±SEMs of the 12 individual values. Statistical analyses were carried out using ANOVA (one way) and Dunnett's t-test and with the non parametric test of Kruskal-Wallis followed by a Mann & Whitney U-test for the sedation cotation. A p value of p<0.05 was taken as indicating significance.

Dopamine D1 Receptor = biological target: T1, Dopamine D1 Receptor (Homo sapiens, UniProt P21728); assay: Dopamine D1 receptor radioligand binding; conditions: 10 μM; 1.4 nM [3H] SCH-23390
T1 construct: expressed in transfected cells; host or cells: CHO cells
Method: (§1) (a) Adrenergic α2A Receptor: • Reference: S. Uhlen et al. J. Pharmacol. Exp. Ther., 271:1558-1565 (1994) • Source: Human recombinant insect Sf9 cells • Ligand: 1 nM [^3H] […] J. Pharmacol., 99:803-809, (1990) • Source: Wistar rat cerebral cortex • Ligand: 2 nM [3H]

Monoamine Oxidase MAO-A = biological target: T2, Monoamine Oxidase MAO-A (Homo sapiens, UniProt P21397); assay: Monoamine Oxidase MAO-A inhibition; assay type: biochemical; conditions: for inhibition at 10 µM: read-out: Percentage Inhibition of Enzyme Activity, MAO-A
T2 sequence (P21397 1-527): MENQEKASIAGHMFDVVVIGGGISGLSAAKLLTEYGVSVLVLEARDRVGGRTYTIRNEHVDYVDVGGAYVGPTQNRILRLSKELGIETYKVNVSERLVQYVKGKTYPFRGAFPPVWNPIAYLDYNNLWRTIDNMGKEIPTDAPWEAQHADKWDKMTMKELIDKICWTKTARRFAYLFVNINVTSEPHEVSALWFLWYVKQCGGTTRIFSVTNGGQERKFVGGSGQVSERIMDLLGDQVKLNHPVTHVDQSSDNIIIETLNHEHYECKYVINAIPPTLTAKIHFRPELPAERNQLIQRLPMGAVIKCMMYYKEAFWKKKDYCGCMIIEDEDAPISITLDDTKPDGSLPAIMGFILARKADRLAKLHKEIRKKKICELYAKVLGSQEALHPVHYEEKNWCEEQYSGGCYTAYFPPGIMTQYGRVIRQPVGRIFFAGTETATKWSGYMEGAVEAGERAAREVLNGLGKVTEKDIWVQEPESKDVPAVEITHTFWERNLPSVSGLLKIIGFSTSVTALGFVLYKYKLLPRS
Method: Isomers B and C were tested for their ability to inhibit enzymes involved in the processing of monoamines in the CNS, namely Catechol O-Methyl Transferase (COMT), Monoamine Oxidase A and Monoamine Oxidase B. The assay methods used are described below and the results are set out in Table 7. (a) Catechol O-Methyl Transferase (COMT) Inhibition • Source: […] None • Incubation time: 60 minutes @ 37° C. • Incubation buffer: 100 mM potassium phosphate, 10 mM MgCl2, 3 mM DTT containing 12 units/ml adenosine deaminase, pH 7.4 • Quantitation method: […]

Sigma σ2 Receptor = biological target: T3, Sigma σ2 Receptor (Rattus norvegicus, UniProt Q5U3Y7); assay: Sigma σ2 receptor radioligand binding; set-up: species or system Wistar rat; conditions: 3 nM [3H] Ifenprodil
T3 construct: Source: Wistar rat brain; from tissue; host or cells: Wistar rat brain
T3 sequence (Q5U3Y7 1-176): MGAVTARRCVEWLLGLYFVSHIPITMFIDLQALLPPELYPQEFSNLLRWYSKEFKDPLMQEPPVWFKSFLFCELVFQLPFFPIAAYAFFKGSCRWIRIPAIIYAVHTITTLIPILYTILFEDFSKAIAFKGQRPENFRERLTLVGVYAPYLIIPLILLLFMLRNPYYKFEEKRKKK
Method: as §1

[1] = 0.3 mg/kg i.p., 45 minutes after administration
[2] = 0.3 mg/kg i.p., 3 hours after administration
[3] = 1 mg/kg i.p., 45 minutes after administration
[4] = 1 mg/kg i.p., 3 hours after administration
[5] = 3 mg/kg i.p., 45 minutes after administration
[6] = 3 mg/kg i.p., 3 hours after administration
[7] = 10 mg/kg i.p., 45 minutes after administration
[8] = 10 mg/kg i.p., 3 hours after administration

T1 sequence (P21728 whole entry): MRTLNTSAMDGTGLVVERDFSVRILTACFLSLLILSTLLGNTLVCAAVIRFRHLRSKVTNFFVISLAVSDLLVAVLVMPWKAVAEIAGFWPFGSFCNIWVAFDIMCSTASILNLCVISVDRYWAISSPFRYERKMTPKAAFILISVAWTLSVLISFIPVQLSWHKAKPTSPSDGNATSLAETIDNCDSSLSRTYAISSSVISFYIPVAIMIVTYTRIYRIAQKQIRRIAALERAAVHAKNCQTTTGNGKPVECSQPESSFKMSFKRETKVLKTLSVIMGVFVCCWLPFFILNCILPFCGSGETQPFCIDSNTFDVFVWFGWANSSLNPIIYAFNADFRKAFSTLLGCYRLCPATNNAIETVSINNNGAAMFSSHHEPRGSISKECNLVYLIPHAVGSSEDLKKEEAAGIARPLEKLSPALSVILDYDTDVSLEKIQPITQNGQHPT

Structure (SMILES)	Inactivity Duration (Male Sprague-Dawley rats; [1])	Large movements Duration (Male Sprague-Dawley rats; [1])	Large movements Occurrence (Male Sprague-Dawley rats; [1])	Inactivity Duration (Male Sprague-Dawley rats; [2])	Large movements Duration (Male Sprague-Dawley rats; [2])	Large movements Occurrence (Male Sprague-Dawley rats; [2])	Inactivity Duration (Male Sprague-Dawley rats; [3])	Large movements Duration (Male Sprague-Dawley rats; [3])	Large movements Occurrence (Male Sprague-Dawley rats; [3])	Inactivity Duration (Male Sprague-Dawley rats; [4])	Large movements Duration (Male Sprague-Dawley rats; [4])	Large movements Occurrence (Male Sprague-Dawley rats; [4])	Inactivity Duration (Male Sprague-Dawley rats; [5])	Large movements Duration (Male Sprague-Dawley rats; [5])	Large movements Occurrence (Male Sprague-Dawley rats; [5])	Inactivity Duration (Male Sprague-Dawley rats; [6])	Large movements Duration (Male Sprague-Dawley rats; [6])	Large movements Occurrence (Male Sprague-Dawley rats; [6])	Inactivity Duration (Male Sprague-Dawley rats; [7])	Large movements Duration (Male Sprague-Dawley rats; [7])	other results
COc1cc2c(cc1OC)[C@H]1C[C@H](O)[C@@H](CC(C)C)CN1CC2 (single isomer, unassigned) [Isomer B, 3,11b-cis-dihydrotetrabenazine]	346.1 ± 36.9 s	72.0 ± 9.6 s	268 ± 36	566.4 ± 44.3 s	28.9 ± 9.2 s	101 ± 29	334.0 ± 23.2 s	87.0 ± 7.6 s	297 ± 22	525.8 ± 28.6 s	34.5 ± 6.2 s	125 ± 18	342.2 ± 33.3 s	89.1 ± 12.4 s	313 ± 38	530.5 ± 38.0 s	31.1 ± 6.5 s	113 ± 17	333.1 ± 26.9 s	84.0 ± 11.2 s	Large movements Occurrence (Male Sprague-Dawley rats; [7]): 298 ± 37; Inactivity Duration (Male Sprague-Dawley rats; [8]): 515.0 ± 53.0 s; Large movements Duration (Male Sprague-Dawley rats; [8]): 30.9 ± 6.4 s; Large movements Occurrence (Male Sprague-Dawley rats; [8]): 120 ± 26; sedative effect (in words) (Male Sprague-Dawley rats): no sedative effects were observed; Percentage Inhibition of Specific Binding, D1 Receptor (Dopamine D1 Receptor): 1%; inhibitory activity against monoamine oxidase isoform A (in words) (Monoamine Oxidase MAO-A): no inhibitory activity; inhibition at 10 µM (Monoamine Oxidase MAO-A): 3%; Percentage Inhibition of Specific Binding, σ2 Receptor (Sigma σ2 Receptor; 10 μM): 64%
COc1cc2c(cc1OC)[C@H]1C[C@@H](O)[C@@H](CC(C)C)CN1CC2 (single isomer, unassigned) [Isomer C, 3,11b-cis-dihydrotetrabenazine]	323.7 ± 25.6 s	79.2 ± 10.0 s	285 ± 34	519.3 ± 33.7 s	31.4 ± 6.0 s	113 ± 19	324.6 ± 38.1 s	71.8 ± 8.3 s	295 ± 30	510.2 ± 44.9 s	30.3 ± 6.5 s	128 ± 24	322.7 ± 27.8 s	84.0 ± 9.4 s	308 ± 36	493.6 ± 38.5 s	30.2 ± 5.5 s	125 ± 22	368.7 ± 30.9 s	66.5 ± 9.9 s	Large movements Occurrence (Male Sprague-Dawley rats; [7]): 254 ± 32; Inactivity Duration (Male Sprague-Dawley rats; [8]): 465.7 ± 49.0 s; Large movements Duration (Male Sprague-Dawley rats; [8]): 42.7 ± 8.0 s; Large movements Occurrence (Male Sprague-Dawley rats; [8]): 164 ± 30; sedative effect (in words) (Male Sprague-Dawley rats): no sedative effects were observed; hyperlocomotor effect (in words) (Male Sprague-Dawley rats; 3 hours after administration): slight and non-significant hyperlocomotor effect; Percentage Inhibition of Specific Binding, D1 Receptor (Dopamine D1 Receptor): 6%; inhibitory activity against monoamine oxidase isoform A (in words) (Monoamine Oxidase MAO-A): no inhibitory activity; inhibition at 10 µM (Monoamine Oxidase MAO-A): 3%; inhibition at 10 µM (Sigma σ2 Receptor; read-out: Percentage Inhibition of Specific Binding, σ2 Receptor): 61%
